In the CheMixHub drug solubility set:

Assay: xn = mol fraction of the nth substance listed, in the solute-free solvent

Nc1cncc(Cl)n1 + CCO + O
solubility (g/100 g solution)
Conditions	278.15 K	283.15 K	288.15 K	293.15 K	298.15 K	303.15 K	308.15 K	313.15 K	318.15 K	323.15 K
x2 = 0.04165	0.0437	0.053	0.0624	0.075	0.0883	0.106	0.124	0.145	0.168	0.197
x2 = 0.08908	0.071	0.0856	0.101	0.12	0.141	0.17	0.198	0.23	0.267	0.313
x2 = 0.1436	0.11	0.132	0.155	0.185	0.217	0.259	0.302	0.35	0.405	0.476
x2 = 0.2068	0.161	0.193	0.226	0.27	0.316	0.376	0.438	0.508	0.588	0.691
x2 = 0.2812	0.21	0.253	0.299	0.358	0.419	0.501	0.589	0.681	0.792	0.934
x2 = 0.3698	0.277	0.332	0.392	0.469	0.548	0.654	0.765	0.889	1.03	1.23
x2 = 0.4772	0.337	0.404	0.479	0.573	0.677	0.806	0.943	1.1	1.28	1.51
x2 = 0.6101	0.374	0.451	0.544	0.654	0.776	0.918	1.08	1.26	1.48	1.77
x2 = 0.7788	0.399	0.482	0.579	0.7	0.826	0.99	1.16	1.38	1.62	1.94

COC1=CC(=O)CC(C)C12Oc1c(Cl)c(OC)cc(OC)c1C2=O (stereo not drawn) + CC(C)=O + CC(C)O
solubility (g/100 g solution)
Conditions	283.15 K	288.15 K	293.15 K	298.15 K	303.15 K	308.15 K	313.15 K	318.15 K	323.15 K
x2 = 0.1	0.176	0.236	0.261	0.31	0.375	0.463	0.602	0.688	0.843
x2 = 0.2	0.338	0.422	0.511	0.55	0.668	0.817	0.967	1.11	1.3
x2 = 0.3	0.587	0.663	0.787	0.871	1.04	1.22	1.41	1.64	1.96
x2 = 0.4	0.84	0.915	1.06	1.23	1.44	1.7	1.94	2.17	2.51
x2 = 0.5	1.23	1.4	1.5	1.62	1.85	2.16	2.51	2.8	3.19
x2 = 0.6	1.56	1.76	1.94	2.08	2.34	2.72	3.08	3.41	3.89
x2 = 0.7	1.81	2.09	2.35	2.55	2.87	3.3	3.65	4.05	4.58
x2 = 0.8	2.16	2.39	2.72	2.95	3.38	3.76	4.19	4.67	5.21
x2 = 0.9	2.56	2.71	3.08	3.33	3.78	4.3	4.68	5.15	5.53

CC(=O)NC(CCC(N)=O)C(=O)O (stereo not drawn) + O + CO
solubility (g/100 g solution)
Conditions	293.15 K	298.15 K	303.15 K	308.15 K	313.15 K	318.15 K
x2 = 0.1998	1.22	1.48	1.76	2.06	2.62	3.27
x2 = 0.4906	2.54	2.73	3.45	4.16	5.01	5.92
x2 = 0.6921	3.1	3.54	4.77	5.99	7.07	8.56
x2 = 0.7712	3.1	3.37	4.17	4.97	6.05	7.41
x2 = 0.8999	3.14	3.34	4.37	5.12	5.77	7.05

Nc1cncc(Cl)n1 + CN(C)C=O + O
solubility (g/100 g solution)
Conditions	278.15 K	283.15 K	288.15 K	293.15 K	298.15 K	303.15 K	308.15 K	313.15 K	318.15 K	323.15 K
x2 = 0.02666	–	–	–	–	–	–	–	–	–	0.136
x2 = 0.05806	–	–	–	–	–	–	–	–	–	0.386
x2 = 0.09556	0.711	0.836	0.963	1.12	1.29	1.5	1.71	1.95	2.21	2.52
x2 = 0.1412	1	1.18	1.36	1.59	1.83	2.13	2.43	2.78	3.15	3.58
x2 = 0.1978	1.13	1.35	1.6	1.86	2.18	2.55	2.94	3.38	3.84	4.38
x2 = 0.27	1.26	1.53	1.81	2.13	2.52	2.94	3.38	3.91	4.51	5.2
x2 = 0.3652	1.39	1.68	2.03	2.4	2.83	3.31	3.89	4.51	5.18	5.97
x2 = 0.4965	1.5	1.85	2.23	2.67	3.17	3.69	4.34	5.06	5.84	6.7
x2 = 0.6893	1.59	1.97	2.39	2.87	3.39	3.97	4.66	5.5	6.38	7.36

CC(=O)NC(CCC(N)=O)C(=O)O (stereo not drawn) + O + CCO
solubility (g/100 g solution)
Conditions	293.15 K	298.15 K	303.15 K	308.15 K	313.15 K	318.15 K
x2 = 0.2647	0.629	0.869	0.998	1.29	1.49	1.75
x2 = 0.4475	1.45	1.76	2.23	2.56	2.78	3.17
x2 = 0.7641	3.01	3.62	4.93	6.04	7.27	8.61
x2 = 0.8293	2.93	3.69	4.49	5.32	6.47	7.52
x2 = 0.9284	3.11	3.48	4.31	5.04	6.17	7.23

O=C(O)c1cc([N+](=O)[O-])ccc1O + CN(C)C=O + O
solubility (g/100 g solution)
Conditions	278.15 K	283.15 K	288.15 K	293.15 K	298.15 K	303.15 K	308.15 K	313.15 K	318.15 K	323.15 K
x2 = 0.02666	0.182	0.224	0.277	0.352	0.437	0.534	0.645	0.775	0.924	1.1
x2 = 0.05806	0.538	0.682	0.832	1	1.26	1.54	1.85	2.17	2.56	3.01
x2 = 0.09556	1.2	1.45	1.81	2.17	2.65	3.12	3.74	4.38	5.16	6.11
x2 = 0.1412	2.33	2.71	3.27	3.93	4.66	5.53	6.45	7.43	8.54	9.8
x2 = 0.1978	3.78	4.51	5.41	6.42	7.5	8.84	10.3	11.9	13.5	15.4
x2 = 0.27	6.74	7.37	8.61	10.2	11.7	13.4	15.2	17.2	19.3	21.5
x2 = 0.3652	10.9	11.7	12.9	14.8	16.9	19	21.2	23.5	26.2	29.4
x2 = 0.4965	14.7	15.3	16.7	19.3	21.5	24	26.1	29.3	32.3	35.7
x2 = 0.6893	16.7	17.7	19.4	21.5	23.8	26.6	29	31.8	35.4	38.8
